Test results: article PMC8771711, “Synthesis of Lasalocid-Based Bioconjugates and Evaluation of Their Anticancer Activity” (ACS Omega, 2022)

Legend:
[1] = system: SW480, human primary colon cancer cell line; test: MTT assay, cytotoxicity in SW480; assay type: cell-based; details: for IC50: MTT, 72 h, mean ± SD; for SW480 SI (selectivity index): SI = IC50 HaCaT / IC50 SW480
Description: (§1) The human cell lines SW480 (primary colon cancer), SW620 (lymph node metastatic colon cancer from the same patient as primary cancer cells), PC3 (metastatic prostate cancer), and HaCaT (immortalized keratinocytes) were obtained from the American Type Culture Collection (ATCC, Rockville, USA). The SW480 and SW620 cells were grown in MEM (ThermoSci, USA), PC3 in RPMI 1640, and HaCaT in DMEM High Glucose (Biowest SAS, France) supplemented with 10% foetal bovine serum (FBS), HEPES (20 mM), and antibiotics (100 U mL^–1 of penicillin and 100 μg mL^–1 of streptomycin). The cells were incubated in a humidified incubator at 37 °C/5% CO2, until 80–90% confluence was reached.
(§2) The cell viability was assessed by using of MTT salt [3-(4,5-dimethylthiazol-2-yl)-2,5-diphenyltetrazolium bromide] converted by mitochondrial dehydrogenase, occurring in living cells. The cells were seeded in 96-well plates at a density of 1 × 10^4 cells per well and allowed to adhere for 24 h at 37 °C in a CO2 humidified incubator. Then, the medium was removed and a fresh medium with various concentrations of tested compounds (from 10 to 120 μM) was added. The untreated cells were used as the control.
(§3) After 72 h incubation, the medium was replaced with 200 μL per well of free serum medium containing 0.5 mg mL^–1 MTT and incubated for 4 h at 37 °C in a CO2 humidified incubator. Subsequently, the medium was removed and dimethyl sulfoxide with isopropanol (1:1) was added to dissolve the formazan crystals. The optical density was measured using a UVM 340 reader (ASYS Hitech GmbH, Austria) at a wavelength of 570 nm. The experiments were repeated three times. The cell viability was calculated as the percent of MTT reduced in treated cells versus control cells (untreated cells). The number of viable cells cultured without tested compounds was assumed as 100%. The decreased relative MTT level indicates decreased cell viability. The IC50 values were estimated using CompuSyn version 1.0.

[2] = system: SW620, human metastatic colon cancer cell line; test: MTT assay, cytotoxicity in SW620; assay type: cell-based; details: for IC50: MTT, 72 h, mean ± SD; for SW620 SI (selectivity index): SI = IC50 HaCaT / IC50 SW620
Description: as §1, §2, §3

[3] = system: PC3, human prostate cancer cell line; test: MTT assay, cytotoxicity in PC3; assay type: cell-based; details: for IC50: MTT, 72 h, mean ± SD; for PC3 SI (selectivity index): SI = IC50 HaCaT / IC50 PC3
Description: as §1, §2, §3

[4] = system: HaCaT, human immortalized keratinocyte cell line; test: MTT assay, cytotoxicity in HaCaT; assay type: cell-based; details: 72 h, mean ± SD, nontumor cells
Description: as §1, §2, §3

[5] = system: PC3 cells; test: Annexin V-FITC/PI binding assay (flow cytometry) in PC3; assay type: cell-based, human; details: IC50 concentration, 72 h
Description: The SW480, SW620, PC3, and HaCaT cells were cultured and harvested under the conditions mentioned in the Section 4.5 and seeded in 12-well plates (1 × 10^5 cells per well). […] The apoptotic effect was performed using the Annexin V-FITC/propidium iodide (PI) apoptosis assay kit (Becton Dickinson, Pharmingen), according to the manufacturer’s instructions, and analyzed by flow cytometry (Becton Dickinson). The cells which were Annexin V-FITC-positive and PI-negative were identified as early apoptotic and both Annexin V-FITC- and PI-positive as late apoptotic or necrotic. The experiment was repeated three times.

[6] = system: three cancer cell lines (SW480, SW620, PC3); test: MTT assay, span over the three cancer cell lines; assay type: cell-based, human
Description: as §1, §2, §3

Compound | IC50 ([1]; Homo sapiens, SW480) [µM] | SW480 SI (selectivity index) [1] | IC50 ([2]; Homo sapiens, SW-620) [µM] | SW620 SI (selectivity index) [2] | IC50 ([3]; Homo sapiens) [µM] | PC3 SI (selectivity index) [3] | IC50 ([4]; Homo sapiens, HaCaT) [µM] | percentage of late apoptotic PC3 cells [5] [%] | percentage of necrotic PC3 cells [5] [%] | IC50 [1] [µM] | IC50 [2] [µM] | IC50 [3] [µM] | IC50 [4] [µM] | IC50 ([6]; Homo sapiens, MTT, 72 h) [µM] | SI, span over three cancer cell lines ([6]; SI = IC50 HaCaT / IC50 cancer cell line)
O=c1[nH]cc(F)c(=O)[nH]1 [5FU, 5-fluorouracil, reference compound] | 43 ± 3.1 | 1.2 | 39 ± 1.2 | 1.3 | 11 ± 0.97 | 4.7 | 52 ± 1.6 |  |  |  |  |  |  |  | 
C=C(C)[C@@H]1CC[C@]2(C(=O)O)CC[C@]3(C)[C@H](CC[C@@H]4[C@@]5(C)CC[C@H](O)C(C)(C)[C@@H]5CC[C@]43C)[C@@H]12 [BET, betulinic acid, reference compound] | 105 ± 7 | 1.0 | 65 ± 3.7 | 1.7 | 71 ± 5.9 | 1.5 | 108 ± 1.3 |  |  |  |  |  |  |  | 
O=c1[nH]c(=O)n(CCCCBr)cc1F [Compound 1] | 36 ± 0.79 | 5.0 | 75 ± 2.7 | 2.4 | 308 ± 5.2 | 0.6 | 179 ± 4.3 |  |  |  |  |  |  |  | 
O=c1[nH]c(=O)n(CCCCCCBr)cc1F [Compound 2, 1-(6-Bromohexyl)-5-fluorouracil] | 103 ± 3.4 | 2.2 | 36 ± 0.83 | 6.2 | 3.1 ± 0.15 | 73 | 224 ± 2.8 |  |  |  |  |  |  |  | 
O=c1[nH]c(=O)n(CCOCCBr)cc1F [Compound 3, 1-(2-(2-Bromoethoxy)ethyl)-5-fluorouracil] | 55 ± 3.5 | 1.9 | 47 ± 3.8 | 2.2 | 42 ± 2.3 | 2.5 | 104 ± 2.2 |  |  |  |  |  |  |  | 
O=c1cc(CCl)occ1O [Compound 4] | 28 ± 1.8 | 1.4 | 20 ± 2.6 | 2.0 | 20 ± 1.5 | 2.0 | 39 ± 0.45 |  |  |  |  |  |  |  | 
CC[C@@H](C(=O)[C@@H](C)[C@@H](O)[C@H](C)CCc1ccc(C)c(O)c1C(=O)OCCCCCCBr)[C@H]1O[C@](CC)([C@H]2CC[C@](O)(CC)[C@H](C)O2)C[C@@H]1C [Compound 5] | 42 ± 1.6 | 1.2 | 34 ± 1.4 | 1.5 | 18 ± 0.98 | 2.8 | 50 ± 0.34 |  |  |  |  |  |  |  | 
C=C(C)[C@@H]1CC[C@]2(C(=O)OCCCCCCOC(=O)c3c(CC[C@@H](C)[C@H](O)[C@H](C)C(=O)[C@H](CC)[C@H]4O[C@](CC)([C@H]5CC[C@](O)(CC)[C@H](C)O5)C[C@@H]4C)ccc(C)c3O)CC[C@]3(C)[C@H](CC[C@@H]4[C@@]5(C)CC[C@H](O)C(C)(C)[C@@H]5CC[C@]43C)[C@@H]12 [Compound 6, LAS–Betulinic Acid Conjugate] | 320 ± 8.8 | 0.05 | 40 ± 2.1 | 0.4 | 200 ± 1.8 | 0.1 | 15 ± 0.59 |  |  |  |  |  |  |  | 
CC[C@@H](C(=O)[C@@H](C)[C@@H](O)[C@H](C)CCc1ccc(C)c(O)c1C(=O)OCCCCn1cc(F)c(=O)[nH]c1=O)[C@H]1O[C@](CC)([C@H]2CC[C@](O)(CC)[C@H](C)O2)C[C@@H]1C [Compound 8, LAS–5-Fluorouracil Conjugate] | 67 ± 1.2 | 0.5 | 14 ± 1 | 2.4 | 3.6 ± 0.08 | 9.2 | 33 ± 3.4 | 33.16 | 34.88 |  |  |  |  |  | 
CC[C@@H](C(=O)[C@@H](C)[C@@H](O)[C@H](C)CCc1ccc(C)c(O)c1C(=O)OCCCCCCn1cc(F)c(=O)[nH]c1=O)[C@H]1O[C@](CC)([C@H]2CC[C@](O)(CC)[C@H](C)O2)C[C@@H]1C [Compound 9, LAS–5-Fluorouracil Conjugate] | 66 ± 2.5 | 0.7 | 55 ± 1.5 | 0.8 | 36 ± 0.79 | 1.2 | 44 ± 1.8 |  |  |  |  |  |  |  | 
CC[C@@H](C(=O)[C@@H](C)[C@@H](O)[C@H](C)CCc1ccc(C)c(O)c1C(=O)OCCOCCn1cc(F)c(=O)[nH]c1=O)[C@H]1O[C@](CC)([C@H]2CC[C@](O)(CC)[C@H](C)O2)C[C@@H]1C [Compound 10, LAS–5-Fluorouracil Conjugate] | 22 ± 2.2 | 0.5 | 11 ± 1.4 | 1.1 | 12 ± 0.13 | 1.0 | 12 ± 0.59 |  |  |  |  |  |  |  | 
CC[C@@H](C(=O)[C@@H](C)[C@@H](O)[C@H](C)CCc1ccc(C)c(O)c1C(=O)OC[C@H]1O[C@@H](n2cc(F)c(=O)[nH]c2=O)C[C@@H]1O)[C@H]1O[C@](CC)([C@H]2CC[C@](O)(CC)[C@H](C)O2)C[C@@H]1C [Compound 11, LAS–Floxuridine Conjugate] | 31 ± 1.2 | 1.6 | 19 ± 2 | 2.6 | 13 ± 1.9 | 3.8 | 50 ± 0.59 |  |  |  |  |  |  |  | 
COc1cccc2c1C(=O)c1c(O)c3c(c(O)c1C2=O)C[C@@](O)(C(=O)CO)C[C@@H]3O[C@H]1C[C@H](N)[C@H](O)[C@H](C)O1 [DOX, doxorubicin, reference compound] | 0.75 ± 0.1 |  |  |  | 0.59 ± 0.02 |  | 0.29 ± 0.1 |  |  |  |  |  |  |  | 
O=C(CCCCCBr)[c-]1cccc1.[Fe+2].c1cc[cH-]c1 [FER, (6-bromo-1-oxohexyl)ferrocene, reference compound] |  | 1.9 |  | 2.1 |  | 1.9 |  |  |  | 61 ± 0.98 | 55 ± 0.7 | 59 ± 0.78 | 115 ± 0.95 |  | 
O=c1[nH]c(=O)n([C@H]2C[C@H](O)[C@@H](CO)O2)cc1F [FLO, floxuridine, reference compound] | 16 ± 1.2 | 2.4 | 8.8 ± 0.69 | 4.3 | 14 ± 0.57 | 2.7 | 38 ± 0.72 |  |  |  |  |  |  |  | 
Nc1ccn([C@@H]2O[C@H](CO)[C@@H](O)C2(F)F)c(=O)n1 [GEM, gemcitabine, reference compound] | 1.2 ± 0.05 | 1.3 | 3.4 ± 0.65 | 0.4 | 0.14 ± 0.02 | 11 | 1.5 ± 0.05 |  |  |  |  |  |  | 0.14 to 3.4 | 0.4–11
O=c1cc(CO)occ1O [KOJ, kojic acid, reference compound] | 119 ± 2.8 | 1.9 | 94 ± 4 | 2.4 | 56 ± 3.3 | 4.0 | 225 ± 7.1 |  |  |  |  |  |  |  | 
BrCCC[P+](c1ccccc1)(c1ccccc1)c1ccccc1.[Br-] [TPP, (3-bromopropyl)triphenylphosphonium bromide, reference compound] | 46 ± 1.1 | 0.6 | 39 ± 2.5 | 0.7 | 31 ± 0.98 | 0.8 | 26 ± 0.96 |  |  |  |  |  |  |  | 
